# Reference: US20240246913A1, “2-CARBOXYL-INDOLE INHIBITORS OF METALLO-BETA-LACTAMASES” (Oxford University Innovation Limited, priority 2021, published 2024)
# pIC50: −log10 of the molar value. Where two headings read alike, the source gives them in different places.
# Legend:
# [1] = molecular target: VIM-2 (Escherichia coli, UniProt Q5U7L7); assay: MBL inhibition, FC-5 fluorescence assay, VIM-2; format: biochemical; conditions: for IC50: FC-5 cephalosporin substrate, ranges of obtained pIC50, read-out: pIC50 VIM-2 (converted); for pIC50: pIC50 VIM-2, FC-5 cephalosporin substrate, ranges of obtained pIC50
# Protocol: (§1) Inhibitors were tested using a panel of the clinically relevant B1 MBLs (NDM-1, VIM-1, -2 and IMP-1). Activities were assayed by monitoring the release of a fluorophore following the enzymatic breakdown of the cephalosporin FC-5 (https://pubs.acs.org/doi/abs/10.1021/jm400769b). FC-5 assays were conducted in clear bottomed 384 black well microplates (Greiner); the initial rate of reaction was assessed by monitoring the fluorescence intensity (λex=380 nm and λem=460 nm) using a Pherstar FS (BMG LabTech) plate reader. Initial rates of reaction were determined and dose-response analyses conducted in GraphPad Prism. Dose-response curves were fitted using the log(inhibitor) vs normalized response—variable slope model of GraphPad Prism 12. Each concentration point for routine screening was conducted with 4 intra-plate replicates.
# [2] = molecular target: NDM-1 (Klebsiella pneumoniae, UniProt C7C422); assay: MBL inhibition, FC-5 fluorescence assay, NDM-1; format: biochemical; conditions: for IC50: FC-5 cephalosporin substrate, fluorescence, ranges of obtained pIC50, read-out: pIC50 NDM-1 (converted)
# Sequence of NDM-1 (C7C422 29-270, looked up, species assumed): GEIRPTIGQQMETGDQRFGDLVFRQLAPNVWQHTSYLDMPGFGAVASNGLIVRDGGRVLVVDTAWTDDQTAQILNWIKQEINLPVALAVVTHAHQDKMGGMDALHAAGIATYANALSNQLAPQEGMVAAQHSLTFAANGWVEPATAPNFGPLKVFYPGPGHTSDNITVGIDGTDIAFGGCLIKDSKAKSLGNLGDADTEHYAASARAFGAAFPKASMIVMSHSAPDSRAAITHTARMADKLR
# Protocol: as §1
# [3] = molecular target: IMP-1 (Serratia marcescens, UniProt P52699); assay: MBL inhibition, FC-5 fluorescence assay, IMP-1; format: biochemical; conditions: for IC50: FC-5 cephalosporin substrate, fluorescence, ranges of obtained pIC50, read-out: pIC50 IMP-1 (converted)
# Sequence of IMP-1 (P52699 19-246, looked up, species assumed): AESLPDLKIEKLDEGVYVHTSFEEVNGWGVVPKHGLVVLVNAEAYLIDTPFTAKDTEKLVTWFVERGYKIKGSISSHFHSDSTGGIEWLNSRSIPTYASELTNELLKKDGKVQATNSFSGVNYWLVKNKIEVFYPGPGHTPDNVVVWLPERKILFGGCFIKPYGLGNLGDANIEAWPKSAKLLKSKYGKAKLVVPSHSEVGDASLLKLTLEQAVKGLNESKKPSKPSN
# Protocol: as §1
# [4] = molecular target: VIM-1 (Pseudomonas aeruginosa, UniProt A0A0F7KYQ8); assay: MBL inhibition, FC-5 fluorescence assay, VIM-1; format: biochemical; conditions: for IC50: FC-5 cephalosporin substrate, ranges of obtained pIC50, read-out: pIC50 VIM-1 (converted); for pIC50: pIC50 VIM-1, FC-5 cephalosporin substrate, ranges of obtained pIC50
# Protocol: as §1
# [5] = Plasma protein binding, equilibrium dialysis, human plasma; format: in vitro ADME; conditions: pH 7.4, equilibrium dialysis (RED) 4 hours at 37° C., read-out: Plasma protein binding, fu, Human
# Protocol: The fraction of unbound compound (fu) in plasma from human or other animal species was determined by equilibrium dialysis at 37° C. for 4 hours using the Rapid Equilibrium Dialysis (RED) device (ThermoFisher Scientific). The test compound at a concentration of 10 μM was added to plasma and dialyzed against isotonic phosphate buffer (67 mM, pH 7.4) over 4 hours at 37° C. After dialysis, compound concentrations in buffer and plasma were quantified by LC-MS/MS. In parallel the stability of the compound in plasma was determined by incubating drug-spiked plasma (10 μM) at 37° C. for 4 hours, meanwhile the control plasma sample was kept in the freezer. The concentration of the compound in both samples was quantified by LC-MS/MS (Waters Corp, Milford, MA, USA).
# [6] = test system: Acinetobacter baumannii NDM-1; assay: Antibiotic susceptibility testing (MIC), AB NDM-1; format: cell-based; conditions: agar or broth dilution (CLSI/EUCAST)
# Protocol: (§2) Antibiotic susceptibility testing was performed using the agar or broth dilution method, in line with the Clinical and Laboratory Standards Institute (CLSI) and European Committee on Antimicrobial Susceptibility Testing (EUCAST) requirements.
# [7] = test system: Escherichia coli NDM-7; assay: Antibiotic susceptibility testing (MIC), EC NDM-7; format: cell-based; conditions: agar or broth dilution (CLSI/EUCAST)
# Protocol: as §2
# [8] = test system: Escherichia coli NDM-1; assay: Antibiotic susceptibility testing (MIC), EC NDM-1; format: cell-based; conditions: agar or broth dilution (CLSI/EUCAST)
# Protocol: as §2
IC50 [1],IC50 [2],IC50 [3],IC50 [4],"fraction unbound at 4 h, 10 μM [5]",SMILES,MIC values AB NDM-1 [6],MIC values EC NDM-7 [7],MIC values EC NDM-1 [8],pIC50 [1],pIC50 [2],pIC50 [3],pIC50 [4]
1 to 10 nM,> 10 nM,> 10 nM,> 10 nM,0.05 to 0.25,"CC(c1cccc2c(-c3ccc(CS(C)(=O)=O)c(F)c3)c(C(=O)O)[nH]c12)n1cc(CNS(N)(=O)=O)nn1 (centres unmarked) [IC-8, 3-(3-Fluoro-4-((methylsulfonyl)methyl)phenyl)-7-(1-(4-((sulfamoylamino)methyl)-1H-1,2,3-triazol-1-yl)ethyl)-1H-indole-2-carboxylic acid]",,,,,,,
,,,,,"CC(c1cccc2c(-c3ccc(CS(C)(=O)=O)c(F)c3)c(C(=O)O)[nH]c12)n1cc(CCC[N+](C)(C)C)oc1=O (centres unmarked) [IC-76, 3-(3-(1-(2-carboxy-3-(3-fluoro-4-((methylsulfonyl)methyl)phenyl)-1H-indol-7-yl)ethyl)-2-oxo-2,3-dihydrooxazol-5-yl)-N,N,N-trimethylpropan-1-aminium]",,,,< 8.00,8.00 to 9.00,< 8.00,< 8.00
> 10 nM,1 to 10 nM,> 10 nM,> 10 nM,,"CC(c1cccc2c(-c3ccc(CS(C)(=O)=O)c(F)c3)c(C(=O)O)[nH]c12)n1cc(CO)oc1=O (centres unmarked) [IC-78, 3-(3-Fluoro-4-((methylsulfonyl)methyl)phenyl)-7-(1-(5-(hydroxymethyl)-2-oxooxazol-3(2H)-yl)ethyl)-1H-indole-2-carboxylic acid]",,,,,,,
1 to 10 nM,0.1 to 1 nM,> 10 nM,1 to 10 nM,,"CC(c1cccc2c(-c3ccc(CS(C)(=O)=O)c(F)c3)c(C(=O)O)[nH]c12)n1cc(CN2CC[C@H](N)C2)oc1=O (stereo partly drawn) [IC-81, 7-[1-[5-[[(3S)-3-Aminopyrrolidin-1-yl]methyl]-2-oxo-oxazol-3-yl]ethyl]-3-[3-fluoro-4-(methylsulfonylmethyl)phenyl]-1H-indole-2-carboxylic acid]",,,,,,,
0.1 to 1 nM,0.1 to 1 nM,> 10 nM,1 to 10 nM,,"CC(c1cccc2c(-c3ccc(CS(C)(=O)=O)c(F)c3)c(C(=O)O)[nH]c12)n1cc(CN2CC[C@@H](N)C2)oc1=O (stereo partly drawn) [IC-82, 7-[1-[5-[[(3R)-3-Aminopyrrolidin-1-yl]methyl]-2-oxo-oxazol-3-yl]ethyl]-3-[3-fluoro-4-(methylsulfonylmethyl)phenyl]-1H-indole-2-carboxylic acid]",,,,,,,
> 10 nM,0.1 to 1 nM,> 10 nM,> 10 nM,,"CS(=O)(=O)Cc1ccc(-c2c(C(=O)O)[nH]c3c(COCc4ccc(CN)cc4)cccc23)cc1F [IC-85, 7-(((4-(Ammoniomethyl)benzyl)oxy)methyl)-3-(3-fluoro-4-((methylsulfonyl)methyl)phenyl)-1H-indole-2-carboxylate]",,,,,,,
> 10 nM,> 10 nM,> 10 nM,> 10 nM,,"CC(OCc1cnn[nH]1)c1cccc2c(-c3ccc(CS(C)(=O)=O)c(F)c3)c(C(=O)O)[nH]c12 (centres unmarked) [IC-91, 7-(1-((1H-1,2,3-triazol-5-yl)methoxy)ethyl)-3-(3-fluoro-4-((methylsulfonyl)methyl)phenyl)-1H-indole-2-carboxylic acid]",,,,,,,
1 to 10 nM,1 to 10 nM,> 10 nM,> 10 nM,,"CC(Nc1ncc(CCCN)o1)c1cccc2c(-c3ccc(CS(C)(=O)=O)c(F)c3)c(C(=O)O)[nH]c12 (centres unmarked) [IC-93, 7-(1-((5-(3-Aminopropyl)oxazol-2-yl)amino)ethyl)-3-(3-fluoro-4-((methylsulfonyl)methyl)phenyl)-1H-indole-2-carboxylic acid]",,,,,,,
1 to 10 nM,1 to 10 nM,> 10 nM,> 10 nM,,"CC(Nc1ncc(CCN)o1)c1cccc2c(-c3ccc(CS(C)(=O)=O)c(F)c3)c(C(=O)O)[nH]c12 (centres unmarked) [IC-94, 7-(1-((5-(2-aminoethyl)oxazol-2-yl)amino)ethyl)-3-(3-fluoro-4-((methylsulfonyl)methyl)phenyl)-1H-indole-2-carboxylic acid]",,,,,,,
1 to 10 nM,1 to 10 nM,> 10 nM,> 10 nM,,"CC(OC(=O)Nc1ccc(CN)cc1)c1cccc2c(-c3ccc(CS(C)(=O)=O)c(F)c3)c(C(=O)O)[nH]c12 (centres unmarked) [IC-96, 7-(1-(((4-(Aminomethyl)phenyl)carbamoyl)oxy)ethyl)-3-(3-fluoro-4-((methylsulfonyl)methyl)phenyl)-1H-indole-2-carboxylic acid]",,,,,,,
> 10 nM,> 10 nM,> 10 nM,> 10 nM,,"CC(c1cccc2c(-c3ccc(CS(C)(=O)=O)c(F)c3)c(C(=O)O)[nH]c12)N1C(=O)c2cc(O)c(O)cc2C1=O (centres unmarked) [IC-98, 7-[1-(5,6-Dihydroxy-1,3-dioxo-2,3-dihydro-1H-isoindol-2-yl)ethyl]-3-[3-fluoro-4-(methanesulfonylmethyl)phenyl]-1H-indole-2-carboxylic acid]",,,,,,,
,,,,,"CC(NC(=O)Oc1ccc(CN)cc1)c1cccc2c(-c3ccc(CS(C)(=O)=O)c(F)c3)c(C(=O)O)[nH]c12 (centres unmarked) [IC-101, 7-(1-(((4-(aminomethyl)phenoxy)carbonyl)amino)ethyl)-3-(3-fluoro-4-((methylsulfonyl)methyl)phenyl)-1H-indole-2-carboxylic acid]",,,,8.00 to 9.00,8.00 to 9.00,< 8.00,< 8.00
1 to 10 nM,1 to 10 nM,> 10 nM,> 10 nM,,"CC(NC(=O)Nc1ccc(CN)cc1)c1cccc2c(-c3ccc(CS(C)(=O)=O)c(F)c3)c(C(=O)O)[nH]c12 (centres unmarked) [IC-102, 7-(1-(3-(4-(aminomethyl)phenyl)ureido)ethyl)-3-(3-fluoro-4-((methylsulfonyl)methyl)phenyl)-1H-indole-2-carboxylic acid]",,,,,,,
> 10 nM,1 to 10 nM,> 10 nM,1 to 10 nM,,"C[C@@H](c1cccc2c(-c3ccc(CS(C)(=O)=O)c(F)c3)c(-c3nnn[nH]3)[nH]c12)N1C[C@]2(C[C@@H](CN)C2)OC1=O [IC-107, (2S,4r)-2-(Aminomethyl)-7-((S)-1-(3-(3-fluoro-4-((methylsulfonyl)methyl)phenyl)-2-(1H-tetrazole-5-yl)-1H-indol-7-yl)ethyl)-5-oxa-7-azaspiro[3.4]octan-6-one]",,,,,,,

SMILES,IC50 [1],IC50 [2],IC50 [3],IC50 [4],"fraction unbound at 4 h, 10 μM [5]",MIC values AB NDM-1 [6],MIC values EC NDM-7 [7],MIC values EC NDM-1 [8],pIC50 [1],pIC50 [2],pIC50 [3],pIC50 [4]
"COc1cc(-c2c(C(=O)O)[nH]c3c([C@H](C)N4CC5(CC(CN)C5)OC4=O)cccc23)ccn1 (stereo partly drawn) [IC-20, 7-((1S)-1-(2-(aminomethyl)-6-oxo-5-oxa-7-azaspiro[3.4]octan-7-yl)ethyl)-3-(2-methoxypyridin-4-yl)-1H-indole-2-carboxylic acid]",0.1 to 1 nM,0.1 to 1 nM,> 10 nM,1 to 10 nM,,B (B MIC values 2 ÷ 8),A (A = MIC values ≤ 1),A (A = MIC values ≤ 1),,,,
"C[C@@H](c1cccc2c(-c3ccc(CN4CCOCC4)nc3)c(C(=O)O)[nH]c12)n1cc(CN2CC(N)C2)oc1=O [IC-52, 7-[(1S)-1-{5-[(3-aminoazetidin-1-yl)methyl]-2-oxo-2,3-dihydro-1,3-oxazol-3-yl}ethyl]-3-{6-[(morpholin-4-yl)methyl]pyridin-3-yl}-1H-indole-2-carboxylic acid]",1 to 10 nM,< 0.1 nM,> 10 nM,> 10 nM,,C (C = MIC values > 8),B (B MIC values 2 ÷ 8),B (B MIC values 2 ÷ 8),,,,
